Experimental data published in ChEMBL document CHEMBL3045892, “Synthesis and evaluation of in vitro antimicrobial activity of novel 2,3-disubstituted-4-thiazolidinones from fatty acid hydrazides” (2013).
In brackets after ≈: the same amount, converted by molar mass.

system: Aspergillus fumigatus; experiment: Antifungal activity against Aspergillus fumigatus by disk diffusion method; type: functional; conditions: not given

Compound | diameter of the inhibition zone (DIZ)
CCCCC/C=C\CC[C@H](O)CCCCCCCC(=O)NN1C(=O)CSC1c1ccc(Cl)cc1 (stereo partly drawn) | 18.7 mm
CCCCCC[C@@H](O)C/C=C\CCCCCCCC(=O)NN1C(=O)CSC1c1ccc(Cl)cc1 (stereo partly drawn) | 20.6 mm

system: Escherichia coli; experiment: Antibacterial activity against Escherichia coli ATCC 25922 after 24 hr by disk diffusion method; type: functional; conditions: not given

Compound | diameter of the inhibition zone (DIZ)
CCCCC/C=C\CC[C@H](O)CCCCCCCC(=O)NN1C(=O)CSC1c1ccc(Cl)cc1 (stereo partly drawn) | 14.3 mm
CCCCCC[C@@H](O)C/C=C\CCCCCCCC(=O)NN1C(=O)CSC1c1ccc(Cl)cc1 (stereo partly drawn) | 14.5 mm

system: Klebsiella pneumoniae; experiment: Antibacterial activity against Klebsiella pneumoniae clinical isolate after 24 hr by broth dilution method; type: functional; conditions: not given

MIC | Compound
50 µg/mL (≈ 98.2 µM) | CCCCC/C=C\CC[C@H](O)CCCCCCCC(=O)NN1C(=O)CSC1c1ccc(Cl)cc1 (stereo partly drawn)
25 µg/mL (≈ 49.1 µM) | CCCCCC[C@@H](O)C/C=C\CCCCCCCC(=O)NN1C(=O)CSC1c1ccc(Cl)cc1 (stereo partly drawn)

system: Klebsiella pneumoniae; experiment: Antibacterial activity against Klebsiella pneumoniae clinical isolate after 24 hr by disk diffusion method; type: functional; conditions: not given

Compound | diameter of the inhibition zone (DIZ)
CCCCC/C=C\CC[C@H](O)CCCCCCCC(=O)NN1C(=O)CSC1c1ccc(Cl)cc1 (stereo partly drawn) | 13.9 mm
CCCCCC[C@@H](O)C/C=C\CCCCCCCC(=O)NN1C(=O)CSC1c1ccc(Cl)cc1 (stereo partly drawn) | 14.5 mm

system: Escherichia coli; experiment: Antibacterial activity against Escherichia coli ATCC 25922 incubated for 24 hr followed by subculturing measured after 18 to 24 hr; type: functional; conditions: not given

Compound | MBC
CCCCC/C=C\CC[C@H](O)CCCCCCCC(=O)NN1C(=O)CSC1c1ccc(Cl)cc1 (stereo partly drawn) | 100 µg/mL (≈ 196 µM)
CCCCCC[C@@H](O)C/C=C\CCCCCCCC(=O)NN1C(=O)CSC1c1ccc(Cl)cc1 (stereo partly drawn) | > 100 µg/mL

system: Streptococcus pyogenes; experiment: Antibacterial activity against Streptococcus pyogenes after 24 hr by broth dilution method; type: functional; conditions: not given

MIC | Compound
25 µg/mL (≈ 49.1 µM) | CCCCC/C=C\CC[C@H](O)CCCCCCCC(=O)NN1C(=O)CSC1c1ccc(Cl)cc1 (stereo partly drawn)
50 µg/mL (≈ 98.2 µM) | CCCCCC[C@@H](O)C/C=C\CCCCCCCC(=O)NN1C(=O)CSC1c1ccc(Cl)cc1 (stereo partly drawn)

system: Pseudomonas aeruginosa; experiment: Antibacterial activity against Pseudomonas aeruginosa ATCC 27853 incubated for 24 hr followed by subculturing measured after 18 to 24 hr; type: functional; conditions: not given

Compound | MBC
CCCCC/C=C\CC[C@H](O)CCCCCCCC(=O)NN1C(=O)CSC1c1ccc(Cl)cc1 (stereo partly drawn) | 100 µg/mL (≈ 196 µM)
CCCCCC[C@@H](O)C/C=C\CCCCCCCC(=O)NN1C(=O)CSC1c1ccc(Cl)cc1 (stereo partly drawn) | 100 µg/mL (≈ 196 µM)

system: Trichophyton mentagrophytes; experiment: Antifungal activity against Trichophyton mentagrophytes after 48 hr; type: functional; conditions: not given

MIC | Compound
25 µg/mL (≈ 49.1 µM) | CCCCC/C=C\CC[C@H](O)CCCCCCCC(=O)NN1C(=O)CSC1c1ccc(Cl)cc1 (stereo partly drawn)
25 µg/mL (≈ 49.1 µM) | CCCCCC[C@@H](O)C/C=C\CCCCCCCC(=O)NN1C(=O)CSC1c1ccc(Cl)cc1 (stereo partly drawn)

system: Candida albicans; experiment: Antifungal activity against Candida albicans incubated for 48 hr followed by subculturing measured after 48 hr; type: functional; conditions: not given

Compound | MFC
CCCCC/C=C\CC[C@H](O)CCCCCCCC(=O)NN1C(=O)CSC1c1ccc(Cl)cc1 (stereo partly drawn) | 50 µg/mL (≈ 98.2 µM)
CCCCCC[C@@H](O)C/C=C\CCCCCCCC(=O)NN1C(=O)CSC1c1ccc(Cl)cc1 (stereo partly drawn) | 50 µg/mL (≈ 98.2 µM)

system: Streptococcus pyogenes; experiment: Antibacterial activity against Streptococcus pyogenes incubated for 24 hr followed by subculturing measured after 18 to 24 hr; type: functional; conditions: not given

Compound | MBC
CCCCC/C=C\CC[C@H](O)CCCCCCCC(=O)NN1C(=O)CSC1c1ccc(Cl)cc1 (stereo partly drawn) | 100 µg/mL (≈ 196 µM)
CCCCCC[C@@H](O)C/C=C\CCCCCCCC(=O)NN1C(=O)CSC1c1ccc(Cl)cc1 (stereo partly drawn) | 100 µg/mL (≈ 196 µM)

system: Candida albicans; experiment: Antifungal activity against Candida albicans after 48 hr; type: functional; conditions: not given

MIC | Compound
25 µg/mL (≈ 49.1 µM) | CCCCC/C=C\CC[C@H](O)CCCCCCCC(=O)NN1C(=O)CSC1c1ccc(Cl)cc1 (stereo partly drawn)
25 µg/mL (≈ 49.1 µM) | CCCCCC[C@@H](O)C/C=C\CCCCCCCC(=O)NN1C(=O)CSC1c1ccc(Cl)cc1 (stereo partly drawn)

system: Candida albicans; experiment: Antifungal activity against Candida albicans by disk diffusion method; type: functional; conditions: not given

Compound | diameter of the inhibition zone (DIZ)
CCCCC/C=C\CC[C@H](O)CCCCCCCC(=O)NN1C(=O)CSC1c1ccc(Cl)cc1 (stereo partly drawn) | 21.2 mm
CCCCCC[C@@H](O)C/C=C\CCCCCCCC(=O)NN1C(=O)CSC1c1ccc(Cl)cc1 (stereo partly drawn) | 23.7 mm

system: Aspergillus fumigatus; experiment: Antifungal activity against Aspergillus fumigatus after 48 hr; type: functional; conditions: not given

MIC | Compound
25 µg/mL (≈ 49.1 µM) | CCCCC/C=C\CC[C@H](O)CCCCCCCC(=O)NN1C(=O)CSC1c1ccc(Cl)cc1 (stereo partly drawn)
25 µg/mL (≈ 49.1 µM) | CCCCCC[C@@H](O)C/C=C\CCCCCCCC(=O)NN1C(=O)CSC1c1ccc(Cl)cc1 (stereo partly drawn)

system: Pseudomonas aeruginosa; experiment: Antibacterial activity against Pseudomonas aeruginosa ATCC 27853 after 24 hr by broth dilution method; type: functional; conditions: ATCC 27853, 24 h

MIC | Compound
50 µg/mL (≈ 98.2 µM) | CCCCC/C=C\CC[C@H](O)CCCCCCCC(=O)NN1C(=O)CSC1c1ccc(Cl)cc1 (stereo partly drawn)
50 µg/mL (≈ 98.2 µM) | CCCCCC[C@@H](O)C/C=C\CCCCCCCC(=O)NN1C(=O)CSC1c1ccc(Cl)cc1 (stereo partly drawn)

system: Aspergillus fumigatus; experiment: Antifungal activity against Aspergillus fumigatus incubated for 48 hr followed by subculturing measured after 48 hr; type: functional; conditions: not given

Compound | MFC
CCCCC/C=C\CC[C@H](O)CCCCCCCC(=O)NN1C(=O)CSC1c1ccc(Cl)cc1 (stereo partly drawn) | 100 µg/mL (≈ 196 µM)
CCCCCC[C@@H](O)C/C=C\CCCCCCCC(=O)NN1C(=O)CSC1c1ccc(Cl)cc1 (stereo partly drawn) | 50 µg/mL (≈ 98.2 µM)

system: Pseudomonas aeruginosa; experiment: Antibacterial activity against Pseudomonas aeruginosa ATCC 27853 after 24 hr by disk diffusion method; type: functional; conditions: not given

Compound | diameter of the inhibition zone (DIZ)
CCCCC/C=C\CC[C@H](O)CCCCCCCC(=O)NN1C(=O)CSC1c1ccc(Cl)cc1 (stereo partly drawn) | 13.9 mm
CCCCCC[C@@H](O)C/C=C\CCCCCCCC(=O)NN1C(=O)CSC1c1ccc(Cl)cc1 (stereo partly drawn) | 14.1 mm

system: Talaromyces marneffei; experiment: Antifungal activity against Talaromyces marneffei by disk diffusion method; type: functional; conditions: not given

Compound | diameter of the inhibition zone (DIZ)
CCCCC/C=C\CC[C@H](O)CCCCCCCC(=O)NN1C(=O)CSC1c1ccc(Cl)cc1 (stereo partly drawn) | 13.3 mm
CCCCCC[C@@H](O)C/C=C\CCCCCCCC(=O)NN1C(=O)CSC1c1ccc(Cl)cc1 (stereo partly drawn) | 14.4 mm

system: Trichophyton mentagrophytes; experiment: Antifungal activity against Trichophyton mentagrophytes incubated for 48 hr followed by subculturing measured after 48 hr; type: functional; conditions: not given

Compound | MFC
CCCCC/C=C\CC[C@H](O)CCCCCCCC(=O)NN1C(=O)CSC1c1ccc(Cl)cc1 (stereo partly drawn) | 100 µg/mL (≈ 196 µM)
CCCCCC[C@@H](O)C/C=C\CCCCCCCC(=O)NN1C(=O)CSC1c1ccc(Cl)cc1 (stereo partly drawn) | 50 µg/mL (≈ 98.2 µM)

system: Talaromyces marneffei; experiment: Antifungal activity against Talaromyces marneffei after 48 hr; type: functional; conditions: not given

MIC | Compound
25 µg/mL (≈ 49.1 µM) | CCCCC/C=C\CC[C@H](O)CCCCCCCC(=O)NN1C(=O)CSC1c1ccc(Cl)cc1 (stereo partly drawn)
25 µg/mL (≈ 49.1 µM) | CCCCCC[C@@H](O)C/C=C\CCCCCCCC(=O)NN1C(=O)CSC1c1ccc(Cl)cc1 (stereo partly drawn)

system: Klebsiella pneumoniae; experiment: Antibacterial activity against Klebsiella pneumoniae clinical isolate incubated for 24 hr followed by subculturing measured after 18 to 24 hr; type: functional; conditions: not given

Compound | MBC
CCCCC/C=C\CC[C@H](O)CCCCCCCC(=O)NN1C(=O)CSC1c1ccc(Cl)cc1 (stereo partly drawn) | > 100 µg/mL
CCCCCC[C@@H](O)C/C=C\CCCCCCCC(=O)NN1C(=O)CSC1c1ccc(Cl)cc1 (stereo partly drawn) | 100 µg/mL (≈ 196 µM)

system: Escherichia coli; experiment: Antibacterial activity against Escherichia coli ATCC 25922 after 24 hr by broth dilution method; type: functional; conditions: ATCC 25922, 24 h

MIC | Compound
50 µg/mL (≈ 98.2 µM) | CCCCC/C=C\CC[C@H](O)CCCCCCCC(=O)NN1C(=O)CSC1c1ccc(Cl)cc1 (stereo partly drawn)
50 µg/mL (≈ 98.2 µM) | CCCCCC[C@@H](O)C/C=C\CCCCCCCC(=O)NN1C(=O)CSC1c1ccc(Cl)cc1 (stereo partly drawn)

system: Trichophyton mentagrophytes; experiment: Antifungal activity against Trichophyton mentagrophytes by disk diffusion method; type: functional; conditions: not given

Compound | diameter of the inhibition zone (DIZ)
CCCCC/C=C\CC[C@H](O)CCCCCCCC(=O)NN1C(=O)CSC1c1ccc(Cl)cc1 (stereo partly drawn) | 14.8 mm
CCCCCC[C@@H](O)C/C=C\CCCCCCCC(=O)NN1C(=O)CSC1c1ccc(Cl)cc1 (stereo partly drawn) | 18.2 mm

system: Streptococcus pyogenes; experiment: Antibacterial activity against Streptococcus pyogenes after 24 hr by disk diffusion method; type: functional; conditions: not given

Compound | diameter of the inhibition zone (DIZ)
CCCCC/C=C\CC[C@H](O)CCCCCCCC(=O)NN1C(=O)CSC1c1ccc(Cl)cc1 (stereo partly drawn) | 15.5 mm
CCCCCC[C@@H](O)C/C=C\CCCCCCCC(=O)NN1C(=O)CSC1c1ccc(Cl)cc1 (stereo partly drawn) | 17.1 mm

system: Talaromyces marneffei; experiment: Antifungal activity against Talaromyces marneffei incubated for 48 hr followed by subculturing measured after 48 hr; type: functional; conditions: not given

Compound | MFC
CCCCC/C=C\CC[C@H](O)CCCCCCCC(=O)NN1C(=O)CSC1c1ccc(Cl)cc1 (stereo partly drawn) | 100 µg/mL (≈ 196 µM)
CCCCCC[C@@H](O)C/C=C\CCCCCCCC(=O)NN1C(=O)CSC1c1ccc(Cl)cc1 (stereo partly drawn) | 100 µg/mL (≈ 196 µM)
